Key:
Test in all cases: KINOMEscan competition binding
Settings in all cases: compound 10.0 µM
TAOK3 (human) = TAOK3 (human) (UniProt Q9H2K8)
PRKD1 (human) = PRKD1 (human) (UniProt Q15139)
PTK2 (human) = PTK2 (human) (UniProt Q05397)
DCLK1 (human) = DCLK1 (human) (UniProt O15075)
FRK (human) = FRK (human) (UniProt P42685)
STK33 (human) = STK33 (human) (UniProt Q9BYT3)
RPS6KA6 KD2 (human) = RPS6KA6 KD2 (human) (UniProt Q9UK32)
TNK1 (human) = TNK1 (human) (UniProt Q13470)
CAMKK2 (human) = CAMKK2 (human) (UniProt Q96RR4)
FER (human) = FER (human) (UniProt P16591)
NUAK1 (human) = NUAK1 (human) (UniProt O60285)
AURKA (human) = AURKA (human) (UniProt O14965)
FGFR4 (human) = FGFR4 (human) (UniProt P22455)
[1] = test system: ABL1 (human), P00519 [F317L]
PTK6 (human) = PTK6 (human) (UniProt Q13882)
RPS6KA1 KD2 (human) = RPS6KA1 KD2 (human) (UniProt Q15418)
CAMK2D (human) = CAMK2D (human) (UniProt Q13557)
GAK (human) = GAK (human) (UniProt O14976)
ULK2 (human) = ULK2 (human) (UniProt Q8IYT8)
PIK3CG (human) = PIK3CG (human) (UniProt P48736)
PLK1 (human) = PLK1 (human) (UniProt P53350)
AURKC (human) = AURKC (human) (UniProt Q9UQB9)
MAPK7 (human) = MAPK7 (human) (UniProt Q13164)
ALK (human) = ALK (human) (UniProt Q9UM73)
PLK4 (human) = PLK4 (human) (UniProt O00444)
CSF1R (human) = CSF1R (human) (UniProt P07333)
TAOK1 (human) = TAOK1 (human) (UniProt Q7L7X3)
MKNK2 (human) = MKNK2 (human) (UniProt Q9HBH9)
TTK (human) = TTK (human) (UniProt P33981)
MYLK (human) = MYLK (human) (UniProt Q15746)
TNK2 (human) = TNK2 (human) (UniProt Q07912)
[2] = test system: ABL1 (human), P00519 [F317I]
ROS1 (human) = ROS1 (human) (UniProt P08922)
ULK1 (human) = ULK1 (human) (UniProt O75385)
RPS6KA2 KD2 (human) = RPS6KA2 KD2 (human) (UniProt Q15349)
DCLK2 (human) = DCLK2 (human) (UniProt Q8N568)
PTK2B (human) = PTK2B (human) (UniProt Q14289)

Sequence of ABL1 (human), P00519 [F317L] (P00519 whole entry F317L, looked up): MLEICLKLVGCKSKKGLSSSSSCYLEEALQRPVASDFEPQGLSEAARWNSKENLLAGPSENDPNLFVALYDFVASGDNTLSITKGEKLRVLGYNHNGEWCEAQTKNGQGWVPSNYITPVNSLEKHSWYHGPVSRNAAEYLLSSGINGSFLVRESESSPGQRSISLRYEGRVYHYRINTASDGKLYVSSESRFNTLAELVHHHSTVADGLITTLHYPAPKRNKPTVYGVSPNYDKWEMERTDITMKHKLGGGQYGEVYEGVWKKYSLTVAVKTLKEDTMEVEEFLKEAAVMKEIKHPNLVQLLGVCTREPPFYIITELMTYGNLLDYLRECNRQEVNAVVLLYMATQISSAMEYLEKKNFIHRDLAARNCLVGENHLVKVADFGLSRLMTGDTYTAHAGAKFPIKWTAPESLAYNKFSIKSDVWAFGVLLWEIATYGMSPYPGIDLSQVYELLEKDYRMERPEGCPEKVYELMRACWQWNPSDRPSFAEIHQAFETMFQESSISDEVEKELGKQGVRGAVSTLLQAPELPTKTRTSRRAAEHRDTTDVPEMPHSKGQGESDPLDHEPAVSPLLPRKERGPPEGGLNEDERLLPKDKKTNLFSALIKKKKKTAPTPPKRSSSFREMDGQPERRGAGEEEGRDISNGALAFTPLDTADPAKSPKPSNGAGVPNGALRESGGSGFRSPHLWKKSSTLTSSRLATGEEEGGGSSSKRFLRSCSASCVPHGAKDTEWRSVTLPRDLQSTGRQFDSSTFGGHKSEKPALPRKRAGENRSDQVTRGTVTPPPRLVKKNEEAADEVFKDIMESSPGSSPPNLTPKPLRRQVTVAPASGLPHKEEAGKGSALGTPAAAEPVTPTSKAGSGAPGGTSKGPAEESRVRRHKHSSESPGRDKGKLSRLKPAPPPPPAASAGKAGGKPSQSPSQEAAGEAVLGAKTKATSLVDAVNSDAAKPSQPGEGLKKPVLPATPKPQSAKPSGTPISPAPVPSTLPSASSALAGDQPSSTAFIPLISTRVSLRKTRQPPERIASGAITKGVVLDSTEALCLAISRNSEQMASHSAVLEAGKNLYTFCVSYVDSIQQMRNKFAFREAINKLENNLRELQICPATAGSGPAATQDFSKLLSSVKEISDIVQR
Sequence of ROS1 (human) (P08922 whole entry, looked up): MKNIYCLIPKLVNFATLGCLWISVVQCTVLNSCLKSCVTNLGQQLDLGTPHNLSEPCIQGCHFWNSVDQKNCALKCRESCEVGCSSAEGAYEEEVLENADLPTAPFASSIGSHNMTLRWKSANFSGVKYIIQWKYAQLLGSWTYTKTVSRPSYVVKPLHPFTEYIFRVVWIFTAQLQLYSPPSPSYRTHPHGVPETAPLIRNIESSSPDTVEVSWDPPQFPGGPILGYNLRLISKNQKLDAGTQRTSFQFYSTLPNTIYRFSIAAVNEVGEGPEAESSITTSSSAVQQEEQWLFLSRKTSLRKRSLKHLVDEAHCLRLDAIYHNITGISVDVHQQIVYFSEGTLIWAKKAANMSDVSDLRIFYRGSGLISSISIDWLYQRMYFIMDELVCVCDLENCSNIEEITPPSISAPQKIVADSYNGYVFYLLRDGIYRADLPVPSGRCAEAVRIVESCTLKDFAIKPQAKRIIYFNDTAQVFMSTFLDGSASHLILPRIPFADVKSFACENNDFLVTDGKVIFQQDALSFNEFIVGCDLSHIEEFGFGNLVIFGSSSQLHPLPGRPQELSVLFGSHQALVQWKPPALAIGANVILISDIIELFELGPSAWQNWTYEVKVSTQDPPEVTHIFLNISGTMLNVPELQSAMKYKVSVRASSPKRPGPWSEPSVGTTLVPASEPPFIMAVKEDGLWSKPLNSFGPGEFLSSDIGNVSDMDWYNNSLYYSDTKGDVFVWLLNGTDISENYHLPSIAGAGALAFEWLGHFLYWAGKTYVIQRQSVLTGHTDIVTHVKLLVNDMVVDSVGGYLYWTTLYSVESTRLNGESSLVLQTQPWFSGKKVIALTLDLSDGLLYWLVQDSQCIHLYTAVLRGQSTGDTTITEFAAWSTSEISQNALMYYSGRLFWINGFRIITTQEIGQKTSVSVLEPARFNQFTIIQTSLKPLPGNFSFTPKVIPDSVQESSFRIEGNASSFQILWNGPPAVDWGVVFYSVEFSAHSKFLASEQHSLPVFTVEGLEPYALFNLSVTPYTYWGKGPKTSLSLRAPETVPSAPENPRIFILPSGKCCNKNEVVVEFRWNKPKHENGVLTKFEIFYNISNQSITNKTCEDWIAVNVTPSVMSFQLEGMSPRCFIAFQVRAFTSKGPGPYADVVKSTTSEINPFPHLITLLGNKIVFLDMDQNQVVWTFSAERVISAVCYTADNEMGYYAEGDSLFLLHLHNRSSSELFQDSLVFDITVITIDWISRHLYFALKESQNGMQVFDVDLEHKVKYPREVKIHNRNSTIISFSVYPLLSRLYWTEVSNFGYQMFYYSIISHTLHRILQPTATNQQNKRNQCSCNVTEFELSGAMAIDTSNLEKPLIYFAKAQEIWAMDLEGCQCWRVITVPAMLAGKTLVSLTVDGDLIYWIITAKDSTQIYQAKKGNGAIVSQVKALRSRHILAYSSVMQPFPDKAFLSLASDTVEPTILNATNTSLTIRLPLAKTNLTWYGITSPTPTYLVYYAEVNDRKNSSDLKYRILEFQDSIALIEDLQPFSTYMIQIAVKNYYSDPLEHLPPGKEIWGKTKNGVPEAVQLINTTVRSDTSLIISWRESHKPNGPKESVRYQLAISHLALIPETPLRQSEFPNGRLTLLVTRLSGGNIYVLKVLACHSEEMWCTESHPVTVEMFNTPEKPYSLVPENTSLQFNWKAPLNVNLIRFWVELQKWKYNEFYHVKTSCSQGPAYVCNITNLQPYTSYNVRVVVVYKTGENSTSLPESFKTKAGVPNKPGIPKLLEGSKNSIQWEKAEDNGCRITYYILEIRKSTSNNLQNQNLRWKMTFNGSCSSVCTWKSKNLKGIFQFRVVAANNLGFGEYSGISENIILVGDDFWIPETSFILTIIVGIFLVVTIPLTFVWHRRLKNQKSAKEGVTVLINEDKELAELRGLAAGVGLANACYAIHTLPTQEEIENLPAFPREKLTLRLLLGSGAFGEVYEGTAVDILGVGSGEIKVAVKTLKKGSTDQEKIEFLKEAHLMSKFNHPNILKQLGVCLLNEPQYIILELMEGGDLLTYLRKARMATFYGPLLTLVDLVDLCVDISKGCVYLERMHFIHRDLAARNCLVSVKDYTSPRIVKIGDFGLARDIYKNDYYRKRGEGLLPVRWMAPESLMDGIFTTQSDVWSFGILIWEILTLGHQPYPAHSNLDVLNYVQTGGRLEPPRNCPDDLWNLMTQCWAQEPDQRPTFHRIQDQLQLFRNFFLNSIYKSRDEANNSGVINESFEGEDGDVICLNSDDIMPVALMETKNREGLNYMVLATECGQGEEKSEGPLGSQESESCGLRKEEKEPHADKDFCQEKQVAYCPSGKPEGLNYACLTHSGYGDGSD
Sequence of PTK2 (human) (Q05397 whole entry, looked up): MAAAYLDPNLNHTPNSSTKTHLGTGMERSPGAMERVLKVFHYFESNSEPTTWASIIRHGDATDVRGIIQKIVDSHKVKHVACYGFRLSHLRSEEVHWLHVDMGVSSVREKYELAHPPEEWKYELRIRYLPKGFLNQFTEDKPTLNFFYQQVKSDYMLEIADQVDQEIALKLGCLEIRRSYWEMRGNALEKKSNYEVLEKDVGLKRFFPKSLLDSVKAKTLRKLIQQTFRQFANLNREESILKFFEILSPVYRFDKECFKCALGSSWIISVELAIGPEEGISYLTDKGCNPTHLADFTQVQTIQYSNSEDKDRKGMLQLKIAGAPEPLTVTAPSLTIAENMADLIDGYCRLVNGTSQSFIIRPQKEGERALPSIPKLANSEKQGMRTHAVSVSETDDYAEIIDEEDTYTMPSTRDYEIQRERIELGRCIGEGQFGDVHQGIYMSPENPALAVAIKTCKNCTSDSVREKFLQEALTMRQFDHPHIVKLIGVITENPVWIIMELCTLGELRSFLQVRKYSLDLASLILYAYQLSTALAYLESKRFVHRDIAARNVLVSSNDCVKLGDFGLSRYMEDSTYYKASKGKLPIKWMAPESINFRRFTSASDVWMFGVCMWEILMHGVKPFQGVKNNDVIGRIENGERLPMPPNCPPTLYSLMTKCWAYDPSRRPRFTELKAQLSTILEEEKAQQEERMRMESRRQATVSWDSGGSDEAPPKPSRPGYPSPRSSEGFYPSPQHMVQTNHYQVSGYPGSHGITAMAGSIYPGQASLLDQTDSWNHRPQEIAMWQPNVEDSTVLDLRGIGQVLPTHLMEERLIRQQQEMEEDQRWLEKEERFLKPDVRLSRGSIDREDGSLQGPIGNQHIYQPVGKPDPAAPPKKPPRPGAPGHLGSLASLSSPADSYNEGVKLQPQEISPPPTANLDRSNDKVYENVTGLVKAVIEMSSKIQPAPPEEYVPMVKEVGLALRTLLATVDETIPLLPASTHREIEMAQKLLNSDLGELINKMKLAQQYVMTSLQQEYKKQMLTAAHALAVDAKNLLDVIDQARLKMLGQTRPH
Sequence of FRK (human) (P42685 whole entry, looked up): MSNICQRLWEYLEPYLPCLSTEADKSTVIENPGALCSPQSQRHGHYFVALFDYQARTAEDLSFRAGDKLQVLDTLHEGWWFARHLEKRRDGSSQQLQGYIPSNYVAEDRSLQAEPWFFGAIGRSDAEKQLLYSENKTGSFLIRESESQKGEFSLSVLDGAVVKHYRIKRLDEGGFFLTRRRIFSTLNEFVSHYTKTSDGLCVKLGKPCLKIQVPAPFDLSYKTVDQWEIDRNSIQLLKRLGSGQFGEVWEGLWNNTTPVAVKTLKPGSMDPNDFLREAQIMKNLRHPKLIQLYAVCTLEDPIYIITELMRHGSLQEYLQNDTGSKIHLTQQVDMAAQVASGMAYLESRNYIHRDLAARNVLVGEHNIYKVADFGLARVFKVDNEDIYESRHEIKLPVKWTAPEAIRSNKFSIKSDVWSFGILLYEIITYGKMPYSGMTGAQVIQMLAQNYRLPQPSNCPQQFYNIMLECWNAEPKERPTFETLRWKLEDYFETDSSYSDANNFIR
Sequence of ABL1 (human), P00519 [F317I] (P00519 whole entry F317I, looked up): as the sequence (P00519 whole entry F317L, looked up) above, with L317I counted along it

COc1cc(N2CCC(O)CC2)ccc1Nc1ncc2c(n1)N(C)c1ccccc1C(=O)N2C
kinase still bound, per cent of control (TAOK3 (human)): 5.4% | kinase still bound, per cent of control (PRKD1 (human)): 26% | kinase still bound, per cent of control (PTK2 (human)): 7.9% | kinase still bound, per cent of control (DCLK1 (human)): 0.55% | kinase still bound, per cent of control (FRK (human)): 11% | kinase still bound, per cent of control (STK33 (human)): 19% | kinase still bound, per cent of control (RPS6KA6 KD2 (human)): 14% | kinase still bound, per cent of control (TNK1 (human)): 0.45% | kinase still bound, per cent of control (CAMKK2 (human)): 15% | kinase still bound, per cent of control (FER (human)): 32% | kinase still bound, per cent of control (NUAK1 (human)): 24% | kinase still bound, per cent of control (AURKA (human)): 26% | kinase still bound, per cent of control (FGFR4 (human)): 6% | kinase still bound, per cent of control [1]: 23% | kinase still bound, per cent of control (PTK6 (human)): 21% | kinase still bound, per cent of control (RPS6KA1 KD2 (human)): 22% | kinase still bound, per cent of control (CAMK2D (human)): 27% | kinase still bound, per cent of control (GAK (human)): 8.5% | kinase still bound, per cent of control (ULK2 (human)): 8.4% | kinase still bound, per cent of control (PIK3CG (human)): 9.3% | kinase still bound, per cent of control (PLK1 (human)): 5.5% | kinase still bound, per cent of control (AURKC (human)): 15% | kinase still bound, per cent of control (MAPK7 (human)): 0% | kinase still bound, per cent of control (ALK (human)): 24% | kinase still bound, per cent of control (PLK4 (human)): 5.9% | kinase still bound, per cent of control (CSF1R (human)): 3.2% | kinase still bound, per cent of control (TAOK1 (human)): 6.8% | kinase still bound, per cent of control (MKNK2 (human)): 0% | kinase still bound, per cent of control (TTK (human)): 13% | kinase still bound, per cent of control (MYLK (human)): 22% | kinase still bound, per cent of control (TNK2 (human)): 1.6% | kinase still bound, per cent of control [2]: 7.4% | kinase still bound, per cent of control (ROS1 (human)): 5.8% | kinase still bound, per cent of control (ULK1 (human)): 22% | kinase still bound, per cent of control (RPS6KA2 KD2 (human)): 27% | kinase still bound, per cent of control (DCLK2 (human)): 0.4% | kinase still bound, per cent of control (PTK2B (human)): 29%

Reference: the kinase profiling compilation of Christmann-Franck et al. (2016)
